The nature of experiment [1]: Inhibition of 20S proteasome beta 1c (unknown origin) after 1 hr by fluorescence based assay.
The nature of experiment [2]: Inhibition of 20S proteasome beta 2c (unknown origin) after 1 hr by fluorescence based assay.

The structures appear in SMILES notation.

The IC50 is the concentration at which inhibition is half-maximal. Low values mean greater potency in that assay, high ones weaker potency in that assay.

For `COc1ccc([C@@H](O)[C@H](NC(=O)[C@H](C)NC(=O)CN2CCOCC2)C(=O)N[C@@H](CC2=CCCC2)C(=O)[C@@]2(C)CO2)cc1` [Kzr-616], the IC50 in experiment [1] was 430 nM; in experiment [2], 28 nM.

These data come from BindingDB's records for doi:10.1016/j.ejmech.2019.111646 (Hangzhou Xixi Hospital, 2019).
